Assay results reported in ChEMBL document CHEMBL3885881, “DrugMatrix”.

Species on record: Rattus norvegicus
Format: toxicity, organism-based, Sprague-Dawley
Details: in vivo, po, route oral GAVAGE, […]; for ABSOLUTE EOSINOPHIL / ABSOLUTE LYMPHOCYTE / ABSOLUTE MONOCYTE / ABSOLUTE SEGMENTED NEUTROPHIL / BASOPHIL / EOSINOPHIL / ERYTHROCYTE COUNT / HEMATOCRIT / HEMOGLOBIN / LEUKOCYTE COUNT / LYMPHOCYTE / MEAN CORPUSCULAR HEMOGLOBIN / MEAN CORPUSCULAR HEMOGLOBIN CONCENTRATION / MEAN CORPUSCULAR VOLUME / MONOCYTE / NEUTROPHIL / NUCLEATED RED BLOOD CELLS / PLATELET COUNT: tissue Blood; for ALANINE AMINOTRANSFERASE / ALBUMIN / ALKALINE PHOSPHATASE / ASPARTATE AMINOTRANSFERASE / BLOOD UREA NITROGEN / CARBON DIOXIDE / CHLORIDE / CHOLESTEROL / CREATINE PHOSPHOKINASE / CREATININE / GLUCOSE / LACTATE DEHYDROGENASE / LIPASE / PHOSPHORUS / POTASSIUM / SODIUM / TOTAL BILIRUBIN / TOTAL PROTEIN / URIC ACID: tissue Plasma
[1] = 0 mg/kg, 6 h, vehicle control, dose level Control, time 0.25 day
[2] = 0 mg/kg, 24 h, vehicle control, dose level Control, time 1 day
[3] = 100 mg/kg, 6 h, dose level Low, time 0.25 day
[4] = 100 mg/kg, 24 h, dose level Low, time 1 day

Description: DrugMatrix - Regimen: Single

## CC(C)(Oc1ccc(CCNC(=O)c2ccc(Cl)cc2)cc1)C(=O)O [BEZAFIBRATE]
[1]
  ABSOLUTE EOSINOPHIL: 0 CELLS/uL
  ABSOLUTE LYMPHOCYTE: 8631 CELLS/uL
  ABSOLUTE MONOCYTE: 171.17 CELLS/uL
  ABSOLUTE SEGMENTED NEUTROPHIL: 1214.5 CELLS/uL
  BASOPHIL: 0%
  EOSINOPHIL: 0%
  ERYTHROCYTE COUNT: 5.42 x10E6/uL
  HEMATOCRIT: 34.7%
  HEMOGLOBIN: 13.67 G/DL
  LEUKOCYTE COUNT: 10.02 x10E3/uL
  LYMPHOCYTE: 86.17%
  MEAN CORPUSCULAR HEMOGLOBIN: 25.27 pg
  MEAN CORPUSCULAR HEMOGLOBIN CONCENTRATION: 39.42 G/DL
  MEAN CORPUSCULAR VOLUME: 64.12 fL
  MONOCYTE: 1.67%
  NEUTROPHIL: 12.17%
  NUCLEATED RED BLOOD CELLS: 0 /100WBC
  PLATELET COUNT: 1050 x10E3/uL
  ALANINE AMINOTRANSFERASE: 61 u/L
  ALBUMIN: 4.67 G/DL
  ALKALINE PHOSPHATASE: 312.5 u/L
  ASPARTATE AMINOTRANSFERASE: 117.5 u/L
  BLOOD UREA NITROGEN: 8.67 mg/dL
  CARBON DIOXIDE: 26.33 mmol/L
  CHLORIDE: 100.5 MEQ/L
  CHOLESTEROL: 72 mg/dL
  CREATINE PHOSPHOKINASE: 283.33 u/L
  CREATININE: 0.28 mg/dL
  GLUCOSE: 172 mg/dL
  LACTATE DEHYDROGENASE: 95.33 u/L
  LIPASE: 10.17 u/L
  PHOSPHORUS: 9.9 mg/dL
  POTASSIUM: 5.75 MEQ/L
  SODIUM: 142.4 MEQ/L
  TOTAL BILIRUBIN: 0.3 mg/dL
  TOTAL PROTEIN: 5.43 G/DL
  URIC ACID: 0.73 mg/dL
[2]
  ABSOLUTE EOSINOPHIL: 90.83 CELLS/uL
  ABSOLUTE LYMPHOCYTE: 14725.17 CELLS/uL
  ABSOLUTE MONOCYTE: 220 CELLS/uL
  ABSOLUTE SEGMENTED NEUTROPHIL: 1080.67 CELLS/uL
  BASOPHIL: 0%
  EOSINOPHIL: 0.67%
  ERYTHROCYTE COUNT: 5.3 x10E6/uL
  HEMATOCRIT: 33.4%
  HEMOGLOBIN: 13.4 G/DL
  LEUKOCYTE COUNT: 16.12 x10E3/uL
  LYMPHOCYTE: 91.17%
  MEAN CORPUSCULAR HEMOGLOBIN: 25.3 pg
  MEAN CORPUSCULAR HEMOGLOBIN CONCENTRATION: 40.12 G/DL
  MEAN CORPUSCULAR VOLUME: 63.05 fL
  MONOCYTE: 1.5%
  NEUTROPHIL: 6.67%
  NUCLEATED RED BLOOD CELLS: 0 /100WBC
  PLATELET COUNT: 1062 x10E3/uL
  ALANINE AMINOTRANSFERASE: 69 u/L
  ALBUMIN: 4.33 G/DL
  ALKALINE PHOSPHATASE: 269 u/L
  ASPARTATE AMINOTRANSFERASE: 83.67 u/L
  BLOOD UREA NITROGEN: 14 mg/dL
  CARBON DIOXIDE: 29 mmol/L
  CHLORIDE: 100.83 MEQ/L
  CHOLESTEROL: 66.67 mg/dL
  CREATINE PHOSPHOKINASE: 355 u/L
  CREATININE: 0.18 mg/dL
  GLUCOSE: 161.33 mg/dL
  LACTATE DEHYDROGENASE: 123.33 u/L
  LIPASE: 10.67 u/L
  PHOSPHORUS: 8.83 mg/dL
  POTASSIUM: 6.06 MEQ/L
  SODIUM: 142.45 MEQ/L
  TOTAL BILIRUBIN: 0.2 mg/dL
  TOTAL PROTEIN: 5.72 G/DL
  URIC ACID: 1.27 mg/dL
[3]
  ABSOLUTE EOSINOPHIL: 94.83 CELLS/uL
  ABSOLUTE LYMPHOCYTE: 14637.67 CELLS/uL
  ABSOLUTE MONOCYTE: 333.5 CELLS/uL
  ABSOLUTE SEGMENTED NEUTROPHIL: 1884 CELLS/uL
  BASOPHIL: 0%
  EOSINOPHIL: 0.5%
  ERYTHROCYTE COUNT: 5.71 x10E6/uL
  HEMATOCRIT: 36.27%
  HEMOGLOBIN: 14.22 G/DL
  LEUKOCYTE COUNT: 16.95 x10E3/uL
  LYMPHOCYTE: 86.67%
  MEAN CORPUSCULAR HEMOGLOBIN: 24.97 pg
  MEAN CORPUSCULAR HEMOGLOBIN CONCENTRATION: 39.22 G/DL
  MEAN CORPUSCULAR VOLUME: 63.68 fL
  MONOCYTE: 2%
  NEUTROPHIL: 10.83%
  NUCLEATED RED BLOOD CELLS: 0 /100WBC
  PLATELET COUNT: 1045.83 x10E3/uL
  ALANINE AMINOTRANSFERASE: 67.33 u/L
  ALBUMIN: 4.53 G/DL
  ALKALINE PHOSPHATASE: 339 u/L
  ASPARTATE AMINOTRANSFERASE: 90 u/L
  BLOOD UREA NITROGEN: 8.17 mg/dL
  CARBON DIOXIDE: 18.33 mmol/L
  CHLORIDE: 102.17 MEQ/L
  CHOLESTEROL: 75.5 mg/dL
  CREATINE PHOSPHOKINASE: 329.33 u/L
  CREATININE: 0.19 mg/dL
  GLUCOSE: 163 mg/dL
  LACTATE DEHYDROGENASE: 253 u/L
  LIPASE: 10.17 u/L
  PHOSPHORUS: 12.57 mg/dL
  POTASSIUM: 5.78 MEQ/L
  SODIUM: 143.17 MEQ/L
  TOTAL BILIRUBIN: 0.32 mg/dL
  TOTAL PROTEIN: 6.1 G/DL
  URIC ACID: 1.68 mg/dL
[4]
  ABSOLUTE EOSINOPHIL: 44 CELLS/uL
  ABSOLUTE LYMPHOCYTE: 13234.17 CELLS/uL
  ABSOLUTE MONOCYTE: 357.67 CELLS/uL
  ABSOLUTE SEGMENTED NEUTROPHIL: 1847.5 CELLS/uL
  BASOPHIL: 0%
  EOSINOPHIL: 0.33%
  ERYTHROCYTE COUNT: 5.35 x10E6/uL
  HEMATOCRIT: 34.67%
  HEMOGLOBIN: 13.47 G/DL
  LEUKOCYTE COUNT: 15.48 x10E3/uL
  LYMPHOCYTE: 85%
  MEAN CORPUSCULAR HEMOGLOBIN: 25.28 pg
  MEAN CORPUSCULAR HEMOGLOBIN CONCENTRATION: 38.95 G/DL
  MEAN CORPUSCULAR VOLUME: 64.9 fL
  MONOCYTE: 2.33%
  NEUTROPHIL: 12.33%
  NUCLEATED RED BLOOD CELLS: 0.17 /100WBC
  PLATELET COUNT: 977.33 x10E3/uL
  ALANINE AMINOTRANSFERASE: 83.17 u/L
  ALBUMIN: 4.5 G/DL
  ALKALINE PHOSPHATASE: 333 u/L
  ASPARTATE AMINOTRANSFERASE: 86.33 u/L
  BLOOD UREA NITROGEN: 13 mg/dL
  CARBON DIOXIDE: 28.83 mmol/L
  CHLORIDE: 101.67 MEQ/L
  CHOLESTEROL: 43.5 mg/dL
  CREATINE PHOSPHOKINASE: 192.33 u/L
  CREATININE: 0.21 mg/dL
  GLUCOSE: 143.33 mg/dL
  LACTATE DEHYDROGENASE: 106.5 u/L
  LIPASE: 10.17 u/L
  PHOSPHORUS: 9.88 mg/dL
  POTASSIUM: 6.29 MEQ/L
  SODIUM: 146.55 MEQ/L
  TOTAL BILIRUBIN: 0.17 mg/dL
  TOTAL PROTEIN: 5.77 G/DL
  URIC ACID: 1.02 mg/dL
